Test results taken from patent publication US10316017B2, “COT modulators and methods of use thereof” (Gilead Sciences, Inc., priority 2015, dated 2019).

These compounds were tested against T1, human Cot catalytic domain (30-397 amino acids) (Homo sapiens, UniProt P41279) (assay: High Throughput Cot Biochemical Assay (KinEASE TR-FRET)). Settings: Cot KinEASE TR-FRET, 400 μM ATP; read-out: IC50 HTRF.
T1 construct: Purified recombinant human Cot catalytic domain (30-397 amino acids) was purchased from Cama Biosciences; purchased Cama Biosciences (so in the source)
T1 sequence (P41279 30-397): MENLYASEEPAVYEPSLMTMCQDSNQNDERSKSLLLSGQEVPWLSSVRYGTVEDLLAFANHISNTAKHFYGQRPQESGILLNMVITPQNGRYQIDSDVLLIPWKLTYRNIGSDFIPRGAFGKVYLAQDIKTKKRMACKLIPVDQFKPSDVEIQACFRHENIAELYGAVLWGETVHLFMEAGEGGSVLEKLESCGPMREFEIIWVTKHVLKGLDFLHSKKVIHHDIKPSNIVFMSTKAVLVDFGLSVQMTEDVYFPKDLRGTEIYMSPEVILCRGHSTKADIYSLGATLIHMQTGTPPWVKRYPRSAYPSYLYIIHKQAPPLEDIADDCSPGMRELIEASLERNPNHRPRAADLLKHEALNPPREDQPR
Experimental: Example 61: High Throughput Cot Biochemical Assay
In this assay, Cot-catalyzes the phosphorylation of a XL665-labeled peptide substrate. Europium conjugated phospho-tyrosine specific antibody binds the resulting phosphorylated peptide. […] Purified recombinant human Cot catalytic domain (30-397 amino acids) was purchased from Cama Biosciences. […] The standard 5 μL reaction mixture contained 400 μM ATP, 1 μM STK3 peptide, 5 nM of Cot in reaction buffer (10 mM MOPS, pH 7.0, 0.02% NaN3, 0.5 mg/mL BSA, 10 mM MgOAc, 1 mM DTT, 0.025% NP-40, 1.5% glycerol) and 0.1% DMSO.
`N#Cc1cnc2c(Cl)cc(NC(c3ccc(F)cc3)c3cn(C4CCNC4)nn3)cc2c1Nc1ccc(F)c(Cl)c1` (stereo in doubt) [Example 873, 8-chloro-4-((3-chloro-4-fluorophenyl)amino)-6-(((4-fluorophenyl)(1-((S)-pyrrolidin-3-yl)-1H-1,2,3-triazol-4-yl)methyl)amino)quinoline-3-carbonitrile] was tested, and the IC50 was 21 nM. `CCN1CCC(n2cc(C(Nc3cc(Cl)c4ncc(C#N)c(Nc5ccc(F)c(Cl)c5)c4c3)c3ccc(Cl)cc3)nn2)CC1` (centres unmarked) [Compound 6] gave an IC50 of 13 nM. `N#Cc1cnc2c(Cl)cc(N[C@@H](c3ccc(F)cc3)c3cn(C4CCN(C5COC5)CC4)nn3)cc2c1Nc1ccc(F)c(Cl)c1` [Compound 31] showed an IC50 of 19 nM. Compound `COCc1cccc([C@H](Nc2cc(Cl)c3ncc(C#N)c(Nc4ccc(F)c(Cl)c4)c3c2)c2cn(C3CCN(C(C)(C)C)CC3)nn2)c1` [Compound 38] has an IC50 of 2 nM. `COC(=O)c1cccc([C@@H](c2cn(C3CCN(C(C)(C)C)CC3)nn2)N(C)c2cc(Cl)c3ncc(C#N)c(Nc4ccc(F)c(Cl)c4)c3c2)c1` [Compound 39] gave an IC50 of 1990 nM. In the case of `N#Cc1cnc2c(Cl)cc(NC(c3ccc(F)cc3)c3ccno3)cc2c1Nc1ccc(F)c(Cl)c1` (centres unmarked) [Example 717, 8-chloro-4-((3-chloro-4-fluorophenyl)amino)-6-(((4-fluorophenyl)(isoxazol-5-yl)methyl)amino)quinoline-3-carbonitrile], the IC50 is reported as 1580 nM. With `Cc1snnc1C(Nc1cc(Cl)c2ncc(C#N)c(Nc3ccc(F)c(Cl)c3)c2c1)c1ccc(F)cc1` (centres unmarked) [Example 718, 8-chloro-4-((3-chloro-4-fluorophenyl)amino)-6-(((4-fluorophenyl)(5-methyl-1,2,3-thiadiazol-4-yl)methyl)amino)quinoline-3-carbonitrile] the IC50 was 3460 nM. With `C#CC(c1ccc(Cl)cc1)N(c1cc(Cl)c2ncc(C#N)c(Nc3cncc(Cl)c3)c2c1)C(c1ccc(Cl)cc1)c1cn(C2CCN(C(C)(C)C)CC2)nn1` (centres unmarked) [Example 725, 6-(((1-(1-(tert-butyl)piperidin-4-yl)-1H-1,2,3-triazol-4-yl)(4-chlorophenyl)methyl)(1-(4-chlorophenyl)prop-2-yn-1-yl)amino)-8-chloro-4-((5-chloropyridin-3-yl)amino)quinoline-3-carbonitrile] the IC50 was 338 nM. With `CN(C)CCNCc1cccc([C@H](Nc2cc(Cl)c3ncc(C#N)c(Nc4ccc(F)c(Cl)c4)c3c2)c2cn(C3CCN(C(C)(C)C)CC3)nn2)c1` [Example 726, (S)-6-(((1-(1-(tert-butyl)piperidin-4-yl)-1H-1,2,3-triazol-4-yl)(3-(((2-(dimethylamino)ethyl)amino)methyl)phenyl)methyl)amino)-8-chloro-4-((3-chloro-4-fluorophenyl)amino)quinoline-3-carbonitrile] the IC50 was 39 nM. In the case of `Cn1cc(C(Nc2cc(Cl)c3ncc(C#N)c(Nc4ccc(F)c(Cl)c4)c3c2)c2cccc(C3OCCO3)c2)nn1` (centres unmarked) [Example 730, 6-(((3-(1,3-dioxolan-2-yl)phenyl)(1-methyl-1H-1,2,3-triazol-4-yl)methyl)amino)-8-chloro-4-((3-chloro-4-fluorophenyl)amino)quinoline-3-carbonitrile], the IC50 is reported as 12 nM. For `CC(C)(C)N1CCC(n2cc([C@@H](Nc3cc(Cl)c4ncc(C#N)c(Nc5ccc(F)c(F)c5)c4c3)c3ccc(Cl)cc3)nn2)CC1` [Example 732, (S)-6-(((1-(1-(tert-butyl)piperidin-4-yl)-1H-1,2,3-triazol-4-yl)(4-chlorophenyl)methyl)amino)-8-chloro-4-((3,4-difluorophenyl)amino)quinoline-3-carbonitrile], the IC50 was 30 nM. `CN(C)Cc1ccc([C@H](Nc2cc(Cl)c3ncc(C#N)c(Nc4ccc(F)c(Cl)c4)c3c2)c2cn(C3CCN(C(C)(C)C)CC3)nn2)cc1` [Example 735, (S)-6-(((1-(1-(tert-butyl)piperidin-4-yl)-1H-1,2,3-triazol-4-yl)(4-((dimethylamino)methyl)phenyl)methyl)amino)-8-chloro-4-((3-chloro-4-fluorophenyl)amino)quinoline-3-carbonitrile] gave an IC50 of 105 nM. In the case of `CN(c1ccc(F)c(Cl)c1)c1c(C#N)cnc2c(Cl)cc(N[C@@H](c3ccc(Cl)cc3)c3cn(C4CCN(C(C)(C)C)CC4)nn3)cc12` [Example 749, (S)-6-(((1-(1-(tert-butyl)piperidin-4-yl)-1H-1,2,3-triazol-4-yl)(4-chlorophenyl)methyl)amino)-8-chloro-4-((3-chloro-4-fluorophenyl)(methyl)amino) quinoline-3-carbonitrile], the IC50 is reported as 3210 nM. For `COc1cc(Nc2c(C#N)cnc3c(Cl)cc(N[C@@H](c4ccc(Cl)cc4)c4cn(C5CCN(C(C)(C)C)CC5)nn4)cc23)c(Cl)cc1Cl` [Example 751, (S)-6-(((1-(1-(tert-butyl)piperidin-4-yl)-1H-1,2,3-triazol-4-yl)(4-chlorophenyl)methyl)amino)-8-chloro-4-((2,4-dichloro-5-methoxyphenyl)amino)quinoline-3-carbonitrile], the IC50 was > 10000 nM. In the case of `CC(C)(C)N1CCC(n2cc([C@@H](Nc3cc(Cl)c4ncc(C#N)c(Nc5ccn(CC(F)(F)F)n5)c4c3)c3ccc(Cl)cc3)nn2)CC1` [Example 752, (S)-6-(((1-(1-(tert-butyl)piperidin-4-yl)-1H-1,2,3-triazol-4-yl)(4-chlorophenyl)methyl)amino)-8-chloro-4-((1-(2,2,2-trifluoroethyl)-1H-pyrazol-3-yl)amino)quinoline-3-carbonitrile], the IC50 is reported as > 10000 nM. For `CC(C)(C)N1CCC(n2cc([C@@H](Nc3cc(Cl)c4ncc(C#N)c(Nc5ccc(F)c(S(C)(=O)=O)c5)c4c3)c3ccc(Cl)cc3)nn2)CC1` [Example 754, (S)-6-(((1-(1-(tert-butyl)piperidin-4-yl)-1H-1,2,3-triazol-4-yl)(4-chlorophenyl)methyl)amino)-8-chloro-4-((4-fluoro-3-(methylsulfonyl)phenyl)amino) quinoline-3-carbonitrile], the IC50 was 2530 nM. `CC(C)(C)N1CCC(n2cc([C@@H](Nc3ccc4nc(N)c(C#N)c(Nc5ccc(F)c(Cl)c5)c4c3)c3ccc(Cl)cc3)nn2)CC1` [Example 760, (S)-2-amino-6-(((1-(1-(tert-butyl)piperidin-4-yl)-1H-1,2,3-triazol-4-yl)(4-chlorophenyl)methyl)amino)-4-((3-chloro-4-fluorophenyl)amino)quinoline-3-carbonitrile] gave an IC50 of 2340 nM. `CC(C)(C)N1CCC(n2cc([C@@H](Nc3cc(Cl)c4ncc(C#N)c(Nc5cccc(C(F)F)c5)c4c3)c3ccc(Cl)cc3)nn2)CC1` [Example 761, (S)-6-(((1-(1-(tert-butyl)piperidin-4-yl)-1H-1,2,3-triazol-4-yl)(4-chlorophenyl)methyl)amino)-8-chloro-4-((3-(difluoromethyl)phenyl)amino) quinoline-3-carbonitrile] gave an IC50 of 484 nM. `CC(C)(C)N1CCC(n2cc([C@@H](Nc3cc(Cl)c4ncc(C#N)c(Nc5cccc(C(F)(F)F)c5)c4c3)c3ccc(Cl)cc3)nn2)CC1` [Example 762, (S)-6-(((1-(1-(tert-butyl)piperidin-4-yl)-1H-1,2,3-triazol-4-yl)(4-chlorophenyl)methyl)amino)-8-chloro-4-((3-(trifluoromethyl)phenyl)amino) quinoline-3-carbonitrile] gave an IC50 of 513 nM.

Same assay, conditions: first value of the cell IC50/EC50; 400 μM ATP, 5 nM Cot; read-out: IC50/EC50 [nM]: IC50 (Cot)
`CCN1CCC(n2cc([C@H](C)Nc3cc(Cl)c4ncc(C#N)c(Nc5ccc(F)c(Cl)c5)c4c3)nn2)CC1` [Comparative Example 2, reference compound] was tested, and the IC50 was 62 nM.
